From the supplement of paper PMC11962398

Key:
[1] = compound: T1, C[C@H]1CNCCN1c1nccc(-c2noc3c2CCC[C@@]32CCCc3sc(N)c(C#N)c32)n1 [BI-2493]; assay: 1 - AUC of viability dose-response curve (sensitivity) (fraction); higher = more sensitive; conditions: 5 days
Protocol: (§1)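 PRISM pooled barcoded cancer cell line viability screen (Broad Institute) with BI-2493 at 8 doses in threefold dilutions from 0.00457 to 10 µmol/L, 5-day treatment; curves fitted per cell line. IC50 is undefined (placeholder) for resistant lines. AUC is capped at 1, and sensitivity is reported as 1 − AUC.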

[2] = compound: T1, BI-2493; conditions: 5 days
Protocol: as §1

Test System | 1 - AUC of viability dose-response curve [1] | IC50 of cell viability [2] [µM]
ISTMES1_PLEURA | 0.0873 | 8.84
J82_URINARY_TRACT | 0.122 | 5.23
JAR_PLACENTA | 0.242 | 3.54
JEKO1_HAEMATOPOIETIC_AND_LYMPHOID_TISSUE | 0.0886 | 5.06
JHH4_LIVER | 0.071 | 6.96
JHH5_LIVER | 0.297 | 0.387
JHH6_LIVER | 0.0848 | 4.43
JHH7_LIVER | 0.27 | 1.67
JHOC5_OVARY | 0.139 | 5.69
JHOM1_OVARY | 0.119 | 4.83
JHOS2_OVARY | 0.0182 | 9.64
JHUEM7_ENDOMETRIUM | 0.101 | 5.02
JIMT1_BREAST | 0.115 | 5.98
JL1_PLEURA | 0.13 | > 10
JMSU1_URINARY_TRACT | 0.00212 | > 10
JOPACA1_PANCREAS | 0.107 | 4.96
JR_SOFT_TISSUE | 0.275 | 1.44
JURLMK1_HAEMATOPOIETIC_AND_LYMPHOID_TISSUE | 0.169 | 3.42
JVM3_HAEMATOPOIETIC_AND_LYMPHOID_TISSUE | 0.105 | 9.45
K029AX_SKIN | 0.058 | 7.21
K562_HAEMATOPOIETIC_AND_LYMPHOID_TISSUE | 0.0609 | 7.18
KALS1_CENTRAL_NERVOUS_SYSTEM | 0.0195 | 9.22
KARPAS620_HAEMATOPOIETIC_AND_LYMPHOID_TISSUE | 0.326 | 0.866

Test System | 1 - AUC of viability dose-response curve [1] | IC50 of cell viability [2] [µM]
KARPAS1718_HAEMATOPOIETIC_AND_LYMPHOID_TISSUE | 0.0894 | 4.87
KATOIII_STOMACH | 0.183 | 4.3
KCL22_HAEMATOPOIETIC_AND_LYMPHOID_TISSUE | 0.193 | 6.3
KD_SOFT_TISSUE | 0.114 | 3.6
KE37_HAEMATOPOIETIC_AND_LYMPHOID_TISSUE | 0.0832 | 6.5
KE39_STOMACH | 0.351 | 1.55
KE97_STOMACH | 0.00627 | > 10
KELLY_AUTONOMIC_GANGLIA | 0.101 | 4.09
KHM1B_HAEMATOPOIETIC_AND_LYMPHOID_TISSUE | 0.106 | 3.77
KKU055_BILIARY_TRACT | 0.156 | 8.47
KKU100_BILIARY_TRACT | 0.182 | 2.61
KKU213_BILIARY_TRACT | 0.12 | 4.97
KLE_ENDOMETRIUM | 0.0854 | 4.68
KMCH1_BILIARY_TRACT | 0.013 | 9.41
KMH2_HAEMATOPOIETIC_AND_LYMPHOID_TISSUE | 0.00616 | 9.96
KMRC1_KIDNEY | 0.0333 | 8.1
KMRC3_KIDNEY | 0.0597 | 7
KMRC20_KIDNEY | 0.185 | 4.73
KMS11_HAEMATOPOIETIC_AND_LYMPHOID_TISSUE | 0.272 | 3.13
KMS12BM_HAEMATOPOIETIC_AND_LYMPHOID_TISSUE | 0.108 | 3.71
KMS18_HAEMATOPOIETIC_AND_LYMPHOID_TISSUE | 0.13 | 5.38
KMS21BM_HAEMATOPOIETIC_AND_LYMPHOID_TISSUE | 0.0119 | 9.51
KMS27_HAEMATOPOIETIC_AND_LYMPHOID_TISSUE | 0.028 | 9

Test System | 1 - AUC of viability dose-response curve [1] | IC50 of cell viability [2] [µM]
KMS28BM_HAEMATOPOIETIC_AND_LYMPHOID_TISSUE | 0.00817 | 9.91
KNS42_CENTRAL_NERVOUS_SYSTEM | 0.0979 | 6.04
KNS60_CENTRAL_NERVOUS_SYSTEM | 0.0228 | 9.53
KNS62_LUNG | 0.271 | 1.79
KNS81_CENTRAL_NERVOUS_SYSTEM | 0.0832 | 6.64
KON_UPPER_AERODIGESTIVE_TRACT | 0.189 | 3.51
KOSC2CL343_UPPER_AERODIGESTIVE_TRACT | 0.0719 | 5.69
KP3_PANCREAS | 0.133 | 6.52
KP4_PANCREAS | 0.189 | 4.92
KPNYN_AUTONOMIC_GANGLIA | 0.144 | > 10
KS1_CENTRAL_NERVOUS_SYSTEM | 0.0533 | 7.63
KU1919_URINARY_TRACT | 0.0267 | 9.28
KURAMOCHI_OVARY | 0.129 | > 10
KYM1_SOFT_TISSUE | 0.117 | 3.79
KYO1_HAEMATOPOIETIC_AND_LYMPHOID_TISSUE | 0.00435 | 9.93
KYSE70_OESOPHAGUS | 0.163 | 5.15
KYSE140_OESOPHAGUS | 0.0648 | > 10
KYSE150_OESOPHAGUS | 0.131 | 3.68
KYSE180_OESOPHAGUS | 0.0499 | 7.63
KYSE270_OESOPHAGUS | 0.113 | 5.56
KYSE410_OESOPHAGUS | 0.15 | 3.85
KYSE510_OESOPHAGUS | 0.22 | 5.11
KYSE520_OESOPHAGUS | 0.136 | 4.02
